Measurements taken from PubChem BioAssay AID608 (Sanford-Burnham Center for Chemical Genomics, 2007).
Active and inactive are the calls of the source. No rule for the calls is given here.

Each molecule was assayed against Peptidyl-prolyl cis-trans isomerase FKBP1A (Homo sapiens) (UniProt P62942) (assay: FKBP12 binders, biophysical, NMR detection (AID 608)). Conditions: NMR binding, purified FKBP12.
Sequence of Peptidyl-prolyl cis-trans isomerase FKBP1A (Homo sapiens) (P62942 whole entry, looked up): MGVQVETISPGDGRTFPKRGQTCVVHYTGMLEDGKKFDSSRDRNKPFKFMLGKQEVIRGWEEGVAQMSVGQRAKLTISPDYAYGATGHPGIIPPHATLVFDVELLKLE
For O=c1/c(=C/c2cccs2)sc2ncnn12, the Kd was > 4 mM (inactive).
In the case of CC(=O)O[C@H]1C[C@@H](OC(C)=O)C(C)(C)C2C[C@@H](OC(C)=O)[C@]3(C)C(CC[C@@]4(C)[C@H](c5ccoc5)OC(=O)[C@H]5O[C@]543)[C@]21C (stereo partly specified), the Kd was > 4 mM (inactive).
Nc1ccc(-c2csnn2)cc1 was tested, and the Kd was > 4 mM (inactive).
With CN(C)CC(O)C1CCOC(C)(C)C1 (stereo unspecified) the Kd was > 4 mM (inactive).
For CC(=O)O[C@H]1C[C@@H](OC(C)=O)C(C)(C)C2C[C@@H](OC(C)=O)[C@@]3(C)C4=CC(=O)O[C@@H](c5ccoc5)[C@]4(C)CCC3[C@]21C (stereo partly specified), the Kd was > 4 mM (inactive).
In the case of Cc1cc(NC(=O)c2cc(C)on2)no1, the Kd was > 4 mM (inactive).
For COc1ccc(/C=C2\SC(N)=NC2=O)cc1, the Kd was > 4 mM (inactive).
With CC(=O)c1cc(C)ccc1OC(=O)c1cccnc1 the Kd was > 4 mM (inactive).
For O=C(Cc1c(F)cccc1Cl)Nc1ccon1, the Kd was > 4 mM (inactive).
With O=C(c1nc2ccccc2s1)N1CCSCC1 the Kd was > 4 mM (inactive).
For NC(=O)C1CCN(c2ccc(Cl)nn2)CC1, the Kd was > 4 mM (inactive).
COCc1nn2c(N)c(C#N)cnc2c1-c1ccccc1 was tested, and the Kd was > 4 mM (inactive).
With CCOc1ccc(C)cc1S(=O)(=O)n1ccnc1 the Kd was > 4 mM (inactive).
For O=C(Nn1cnnc1)c1cc2c(s1)CCCC2, the Kd was > 4 mM (inactive).
In the case of CSc1nc2nccc(N)n2n1, the Kd was > 4 mM (inactive).
With NC(=O)C1CCN(C(=S)Nc2ccccc2)CC1 the Kd was > 4 mM (inactive).
With CC(=O)Nc1cccc(N2CCCC2=O)c1 the Kd was > 4 mM (inactive).
For CC(=O)O[C@@H]1CC2C(C)(C)[C@H](O)C=C[C@]2(C)C2CC[C@@]3(C)[C@H](c4ccoc4)OC(=O)C4OC43[C@@]21C (stereo partly specified), the Kd was > 4 mM (inactive).
For NC(=O)c1ccsc1N, the Kd was > 4 mM (inactive).
For CC(=O)c1ccc(-n2ccnc2)cc1, the Kd was > 4 mM (inactive).
In the case of O=C1CSC(=Nc2ccc(C(=O)O)cc2)N1, the Kd was > 4 mM (inactive).
With CS(=O)(=O)N1CCC(C(=O)NC2CCCC2)CC1 the Kd was > 4 mM (inactive).
In the case of O=C1NC(=S)S/C1=C/c1ccncc1, the Kd was > 4 mM (inactive).
NC1=NC(=O)CC(C(=O)Nc2ccccc2)S1 (stereo unspecified) was tested, and the Kd was > 4 mM (inactive).
NC(=O)C1(c2ccccc2)CCOCC1 was tested, and the Kd was > 4 mM (inactive).
For [O-][n+]1cc(O)c(CN2CCOCC2)c2ccccc21, the Kd was > 4 mM (inactive).
With CC(=O)Nc1cc(C(F)(F)F)ccc1N1CCOCC1 the Kd was > 4 mM (inactive).
In the case of Cc1ccc(CO)o1, the Kd was > 4 mM (inactive).
For Cc1cc(C)nc(/N=C(/N)N2CCN(C)CC2)n1, the Kd was > 4 mM (inactive).
With CC(=O)Nc1ccc(Oc2nc(C)cc(C)n2)cc1 the Kd was > 4 mM (inactive).
In the case of O=c1[nH]cnc2nc[nH]c12, the Kd was > 4 mM (inactive).
In the case of COCCn1cnc2cc(C)c(C)cc21, the Kd was > 4 mM (inactive).
For Cc1onc(-c2ccc(F)cc2)c1C(=O)O, the Kd was > 4 mM (inactive).
Cc1noc(-c2ccccc2)c1CO was tested, and the Kd was > 4 mM (inactive).
With NCc1ccc(S(N)(=O)=O)cc1 the Kd was > 4 mM (inactive).
For CC(=O)N1CCc2ccccc2C1CC(=O)O (stereo unspecified), the Kd was > 4 mM (inactive).
For CC(C)=NNC(=O)C(=O)Nc1ccc(F)cc1, the Kd was > 4 mM (inactive).
In the case of O=C(O)C1COc2ccccc2O1 (stereo unspecified), the Kd was > 4 mM (inactive).
In the case of N#CCN1C(=O)c2ccccc2S1(=O)=O, the Kd was > 4 mM (inactive).
With CC(C)C(C)/C=C/C(C)C1CCC2C3=CC=C4CC(O)CCC4(C)C3CCC21C (stereo unspecified) the Kd was > 4 mM (inactive).
CCOC(=O)c1ccc(Oc2ccc(C)nn2)cc1 was tested, and the Kd was > 4 mM (inactive).
With O=C(O)c1cc(O)c(O)c(O)c1 the Kd was > 4 mM (inactive).
In the case of c1ccc(CCN2CCN(CCc3ccccn3)CC2)nc1, the Kd was > 4 mM (inactive).
COc1ccc(-c2c(OC)c3c(OC)c4c(cc3oc2=O)OC(C)(C)C=C4)cc1 was tested, and the Kd was > 4 mM (inactive).
With Cc1ccc(C(C)C)cc2c(C)ccc1-2 the Kd was > 4 mM (inactive).
O=c1[nH]cc(Nc2ccccc2)c(=O)[nH]1 was tested, and the Kd was > 4 mM (inactive).
